From patent US10351575B2, “Bicyclic urea, thiourea, guanidine and cyanoguanidine compounds useful for the treatment of pain” (Array BioPharma Inc., priority 2012, dated 2019)

Each compound was assayed against His-tagged recombinant human TrkA (Homo sapiens (Human), UniProt P04629) (assay: TrkA LanthaScreen Eu Kinase Binding Assay). Settings: averaged IC50; TR-FRET binding, 60 min, 22° C.; read-out: TrkA Enzyme IC50.
Experimental: TrkA binding activity was determined in a TrkA LanthaScreen™ Eu Kinase Binding Assay. 5 nM His-tagged recombinant human TrkA (6HIS tagged cytoplasmic domain from Invitrogen, Catalog No. PV3144) was incubated with 4 nM Alexa-Fluor® Tracer 236 (Invitrogen Cat. No. PV5592), 2 nM biotinylated anti-His (Invitrogen Cat. No. PV6090), and 2 nM europium-labeled Streptavidin (Invitrogen Cat. No. PV5899), in buffer (25 mM MOPS, pH 7.5, 5 mM MgCl2, 0.005% Triton X-100). Three fold serial dilutions of compounds of the invention in DMSO were added to a final percentage of 2% DMSO. After 60-minute incubation at 22° C., the reaction was measured using the EnVision mutlimode plate reader (PerkinElmer) via TR-FRET dual wavelength detection at […]. The percent of control was calculated using a ratiometric emission factor. The IC50 values were determined by fitting a four parameter model to the percent of control data.

Sequence of His-tagged recombinant human TrkA (P04629 440-796): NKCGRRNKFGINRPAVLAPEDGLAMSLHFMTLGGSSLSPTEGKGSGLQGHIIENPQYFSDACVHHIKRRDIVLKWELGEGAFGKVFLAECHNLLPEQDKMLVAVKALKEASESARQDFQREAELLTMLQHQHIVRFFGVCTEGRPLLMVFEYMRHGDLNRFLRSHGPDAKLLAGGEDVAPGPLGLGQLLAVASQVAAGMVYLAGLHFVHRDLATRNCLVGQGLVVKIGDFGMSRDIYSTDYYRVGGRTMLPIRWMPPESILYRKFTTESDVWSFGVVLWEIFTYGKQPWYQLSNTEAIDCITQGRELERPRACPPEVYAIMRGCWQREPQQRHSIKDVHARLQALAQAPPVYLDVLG

Row | IC50 [nM] | SMILES
1 | < 100 | Cc1c(-c2cnn(C)c2)nn(-c2ccccc2)c1NC(=O)N[C@@H]1c2ccccc2C2(CC2)[C@H]1O (relative stereo) [Example 55, 1-(1′,4-dimethyl-1-phenyl-1H,1′H-[3,4′-bipyrazol]-5-yl)-3-(trans-2′-hydroxy-2′,3′-dihydrospiro[cyclopropane-1,1′-inden]-3′-yl)urea]
2 | < 100 | Cc1ncc(-c2nn(-c3ccccc3)c(NC(=O)N[C@@H]3c4ccccc4C4(CC4)[C@H]3O)c2C)cn1 (relative stereo) [Example 56, 1-(trans-2′-hydroxy-2′,3′-dihydrospiro[cyclopropane-1,1′-inden]-3′-yl)-3-(4-methyl-3-(2-methylpyrimidin-5-yl)-1-phenyl-1H-pyrazol-5-yl)urea]
3 | < 100 | COc1ncc(-c2nn(-c3ccccc3)c(NC(=O)N[C@@H]3c4ccccc4C4(CC4)[C@H]3O)c2C)cn1 (relative stereo) [Example 57, 1-(trans-2′-hydroxy-2′,3′-dihydrospiro[cyclopropane-1,1′-inden]-3′-yl)-3-(3-(2-methoxypyrimidin-5-yl)-4-methyl-1-phenyl-1H-pyrazol-5-yl)urea]
4 | < 100 | Cc1c(-c2cnn(C)c2)nn(-c2ccccc2)c1NC(=O)N[C@@H]1c2cc(F)c(F)cc2C2(CC2)[C@H]1O (relative stereo) [Example 58, 1-(trans-5′,6′-difluoro-2′-hydroxy-2′,3′-dihydrospiro[cyclopropane-1,1′-inden]-3′-yl)-3-(1′,4-dimethyl-1-phenyl-1H,1′H-[3,4′-bipyrazol]-5-yl)urea]
5 | < 100 | COc1nn(-c2ccccc2)c(NC(=O)N[C@@H]2c3ccccc3C3(CC3)[C@H]2O)c1C (relative stereo) [Example 60, 1-(trans-2′-hydroxy-2′,3′-dihydrospiro[cyclopropane-1,1′-inden]-3-yl)-3-(3-methoxy-4-methyl-1-phenyl-1H-pyrazol-5-yl)urea]
6 | < 100 | CCOc1nn(-c2ccccc2)c(NC(=O)N[C@@H]2c3ccccc3C3(CC3)[C@H]2O)c1C (relative stereo) [Example 61, 1-(3-ethoxy-4-methyl-1-phenyl-1H-pyrazol-5-yl)-3-(trans-2′-hydroxy-2′,3′-dihydrospiro[cyclopropane-1,1-inden]-3-yl)urea]
7 | < 100 | COc1nn(-c2ccccc2)c(NC(=O)N[C@@H]2c3cc(F)c(F)cc3C3(CC3)[C@H]2O)c1C (relative stereo) [Example 62, 1-(trans-5′,6′-difluoro-2′-hydroxy-2′,3′-dihydrospiro[cyclopropane-1,1′-inden]-3′-yl)-3-(3-methoxy-4-methyl-1-phenyl-1H-pyrazol-5-yl)urea]
8 | < 100 | Cc1c(-c2cnn(C)c2)nn(-c2ccccc2)c1NC(=O)N[C@@H]1c2cc(F)ccc2C2(CC2)[C@H]1O (relative stereo) [Example 63, 1-(1′,4-dimethyl-1-phenyl-1H,1′H-[3,4′-bipyrazol]-5-yl)-3-(trans-5′-fluoro-2′-hydroxy-2′,3′-dihydrospiro[cyclopropane-1,1′-inden]-3′-yl)urea]
9 | < 100 | Cc1c(-c2cnn(C)c2)nn(-c2ccccc2)c1NC(=O)N[C@@H]1c2ccc(F)cc2C2(CC2)[C@H]1O (relative stereo) [Example 64, 1-(1′,4-dimethyl-1-phenyl-1H,1′H-[3,4′-bipyrazol]-5-yl)-3-(trans-6′-fluoro-2′-hydroxy-2′,3′-dihydrospiro[cyclopropane-1,1′-inden]-3′-yl)urea]
10 | < 100 | Cc1c(NC(=O)N[C@@H]2c3ccccc3C(C)(C)C[C@H]2O)n(-c2ccccc2)[nH]c1=O (relative stereo) [Example 95, 1-(trans-2-hydroxy-4,4-dimethyl-1,2,3,4-tetrahydronaphthalen-1-yl)-3-(4-methyl-5-oxo-2-phenyl-2,5-dihydro-1H-pyrazol-3-yl)urea]
11 | < 100 | COc1nn(-c2ccccc2)c(NC(=O)N[C@@H]2c3ccccc3C(C)(C)C[C@H]2O)c1C (relative stereo) [Example 97, 1-(trans-2-hydroxy-4,4-dimethyl-1,2,3,4-tetrahydronaphthalen-1-yl)-3-(3-methoxy-4-methyl-1-phenyl-1H-pyrazol-5-yl)urea]
